In publication PMC8566451, “Lead optimization of novel quinolone chalcone compounds by a structure–activity relationship (SAR) study to increase efficacy and metabolic stability” (Scientific Reports, 2021):

Legend:
[1] = tested on: cancer cell lines (breast cancer, melanoma, cervical cancer); assay: SRB assay, average GI50 over cancer cell lines; format: cell-based; details: average over the cell lines of Table 1 or Supplemental Table S1; read-out: average GI50
Description: (§1) The SRB assay was used to assess drug-induced cytotoxicity and cell proliferation as previously described[2],[33],[34] with a few modifications. Briefly, cells were plated 10,000 to 25,000 cells/cm^2 in 96-well plates (100 µl medium) and allowed to adhere overnight. The cell counts were different for each cell line to ensure optimal cell growth for the duration of the assay. Eight different concentrations of compound solutions using 2–4 times serial dilutions (100 µl). Cells were then incubated for an additional 48 h and then fixed with 100 µl ice-cold 10% (w/v) trichloroacetic acid (TCA) (without removing the cell medium, final concentration, 3.3% of TCA) and stained with 0.4% SRB (w/v) in 1% acetic acid (v/v). The relative growth rate (%) was calculated for each of the compound concentrations according to the following formula: 100 * (T − T0)/(C − T0), in which T is the optical density (OD) after exposure to a certain concentration of the compound after 48 h, T0 is the OD at the start of drug exposure (time zero) and C is the control growth. The GI50 for each compound was obtained from a non-linear sigmoidal dose–response (variable slope) curve fitted by GraphPad Prism v.4.03 software.

RPMI-8226 = assay: Sulforhodamine B (SRB) assay; format: cell-based; details: Homo sapiens, Supplementary Table S1, SRB
Description: (§2) The human MDA-MB-231, MCF7, MDA-MB-468, RPMI-8226 and HeLa cell lines were purchased from ATCC and maintained in Dulbecco's Modified Eagle Medium (DMEM)—high glucose supplemented with 10% fetal bovine serum (FBS) and antibiotics/antimycotics. Cell line authentication was carried out by Genetica DNA Laboratories (Burlington, NC) using a short tandem repeat (STR) profiling method (March 2015; July 2015; September 2016). Melanoma cells E-055 (MZ-Mel-3), E-097 (Mel-SOE), E-112 (UKRV-Mel-38), E-157 (UKRV-Mel-17) were obtained from the European Searchable Tumour Line Database (ESTDAB) cell bank (a kind gift of Dr. Graham Pawelec, Tubingen University, Germany). MDA-MB-435 was purchased from the Division of Cancer Treatment and Diagnosis Tumor Repository. All melanoma cells were cultured in Roswell Park Memorial Institute (RPMI) medium supplemented with 10% FBS and P/S/antimycotics. Primary human epidermal melanocytes from normal adult abdominal skin were purchased from ATCC (cat # PCS-200–013) and Cell Applications (cat#104-05a). The melanocytes were cultured in the media supplied by the companies.
as §1

HeLa = assay: Sulforhodamine B (SRB) assay; format: cell-based; details: Homo sapiens; for IC50: HeLa, Supplementary Table S1, SRB; for GI50: HeLa cervical cancer cells, 48 h, SRB
Description: as §2, §1

MDA-MB231 = assay: Sulforhodamine B (SRB) assay; format: cell-based; details: Homo sapiens, MDA-MB-231; for IC50: Supplementary Table S1, SRB; for GI50: MDA-MB231 breast cancer cells, 48 h, SRB
Description: as §2, §1

MCF7 = assay: Sulforhodamine B (SRB) assay; format: cell-based; details: Homo sapiens; for IC50: MCF7, Supplementary Table S1, SRB; for GI50: MCF7 breast cancer cells, 48 h, SRB
Description: as §2, §1

MDA-MB468 = assay: Sulforhodamine B (SRB) assay; format: cell-based; details: Homo sapiens, MDA-MB-468, MDA-MB468 breast cancer cells, 48 h
Description: as §2, §1

MDA-MB435 = assay: Sulforhodamine B (SRB) assay; format: cell-based; details: Homo sapiens, MDA-MB-435, MDA-MB435 cells, 48 h
Description: as §2, §1

MZ-Mel-3 = assay: Sulforhodamine B (SRB) assay; format: cell-based; details: MZ-Mel-3 melanoma cells, 48 h
Description: as §2, §1

UKRV-Mel-38 = assay: Sulforhodamine B (SRB) assay; format: cell-based; details: UKRV-Mel-38 melanoma cells, 48 h
Description: as §2, §1

UKRV-Mel-17 = assay: Sulforhodamine B (SRB) assay; format: cell-based; details: UKRV-Mel-17 melanoma cells, 48 h
Description: as §2, §1

Mel-SOE = assay: Sulforhodamine B (SRB) assay; format: cell-based; details: Mel-SOE melanoma cells, 48 h
Description: as §2, §1

MDA-MB231-TaxR = assay: Sulforhodamine B (SRB) assay; format: cell-based; details: Homo sapiens, MDA-MB231-TaxR paclitaxel-resistant breast cancer cells, 48 h
Excerpt: We had initially determined that quinolone chalcones were promising anti-proliferative through a first round screening and identified CTR-17 and CTR-20 as favorable structures for anticancer activity. […] We carried out a comparative SAR study to determine if we could further optimize the quinolone chalcone to maximize efficacy. The Sulforhodamine B (SRB) assay was used to measure the anti-proliferative/cell killing activities of CTRs, for which several different cell lines were use: the cervical cancer HeLa, the breast cancer cell lines MDA-MB231, MDA-MB468, MDA-MB231TaxR (an induced paclitaxel-resistant sub-cell line of the MDA-MB231[9]) and MCF7. In addition, a subset was tested against the melanoma cell lines MZ-MEL-3.1, Mel-SOE, UKRV-Mel-38, UKRV-Mel-17 and MDA-MB-435 (Table 1, Supplemental Table S1).
as §1

porcine tubulin = biological target: T1, porcine tubulin (Sus scrofa, UniProt P02550+P02554); assay: In vitro tubulin polymerization assay; format: biochemical; details: 3 µM compound, 20 µM porcine tubulin, 37 °C, 60 min
T1 construct: purchased Cytoskeleton Inc., Denver, CO BK011P
Description: Spontaneous polymerization of 20 µM porcine tubulin was initiated with the addition of 1 mmol/L GTP at 37 °C and monitored every minute for 60 min in the presence of the indicated concentration of CTR-21, CTR-32, nocodazole, paclitaxel, or a DMSO vehicle control. To make the graph simpler, only 3 µM concentration is shown. […] A modified Dixon plot was used to determine the inhibitory concentration of CTR-21 and CTR-32 (Ki).
Microtubule assembly was assessed using a Tubulin Polymerization assay kit (BK011P; Cytoskeleton Inc., Denver, CO). […] Polymerization was started by incubating at 37 °C and followed by absorbance readings every 1 min at 340 nm for 1 h using a Synergy H4 plate reader.

T1 sequence (P02554 whole entry): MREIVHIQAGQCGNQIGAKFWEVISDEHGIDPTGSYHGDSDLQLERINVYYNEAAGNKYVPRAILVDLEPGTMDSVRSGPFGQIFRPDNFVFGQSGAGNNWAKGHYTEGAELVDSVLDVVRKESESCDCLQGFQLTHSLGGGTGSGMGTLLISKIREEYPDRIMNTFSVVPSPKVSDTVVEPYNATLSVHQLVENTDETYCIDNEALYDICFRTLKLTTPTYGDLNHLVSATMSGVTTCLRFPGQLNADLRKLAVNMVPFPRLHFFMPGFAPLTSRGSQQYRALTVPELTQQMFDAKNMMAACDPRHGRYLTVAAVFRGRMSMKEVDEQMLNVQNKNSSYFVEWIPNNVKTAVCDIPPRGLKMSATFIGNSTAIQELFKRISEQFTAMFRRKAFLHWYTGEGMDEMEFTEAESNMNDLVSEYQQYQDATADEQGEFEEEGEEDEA
T1 sequence (P02550 whole entry): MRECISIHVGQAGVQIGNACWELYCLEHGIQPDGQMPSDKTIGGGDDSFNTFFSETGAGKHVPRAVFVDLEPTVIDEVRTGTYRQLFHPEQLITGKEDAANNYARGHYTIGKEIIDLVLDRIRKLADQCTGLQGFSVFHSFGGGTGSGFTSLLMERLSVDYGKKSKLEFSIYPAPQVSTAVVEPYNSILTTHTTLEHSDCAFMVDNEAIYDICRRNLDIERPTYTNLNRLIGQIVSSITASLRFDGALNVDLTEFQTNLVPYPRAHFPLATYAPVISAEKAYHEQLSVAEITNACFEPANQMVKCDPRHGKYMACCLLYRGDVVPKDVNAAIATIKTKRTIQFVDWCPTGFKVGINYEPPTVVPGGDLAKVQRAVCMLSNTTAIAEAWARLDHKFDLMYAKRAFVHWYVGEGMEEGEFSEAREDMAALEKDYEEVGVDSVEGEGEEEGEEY

| SMILES | GI50 [1] [nM] | IC50 (RPMI-8226) [nM] | IC50 (HeLa) [nM] | IC50 (MDA-MB231) [nM] | IC50 (MCF7) [nM] | GI50 (MDA-MB468) [nM] | GI50 (MDA-MB435) [nM] | GI50 (HeLa) [nM] | GI50 (MDA-MB231) [nM] | GI50 (MCF7) [nM] | GI50 (MDA-MB231-TaxR) [nM] | GI50 (MZ-Mel-3) [nM] | GI50 (UKRV-Mel-38) [nM] | GI50 (UKRV-Mel-17) [nM] | GI50 (Mel-SOE) [nM] | effect on tubulin polymerization (porcine tubulin) |
| --- | --- | --- | --- | --- | --- | --- | --- | --- | --- | --- | --- | --- | --- | --- | --- | --- |
| COc1cc(F)ccc1C(=O)/C=C/c1cc2ccccc2[nH]c1=O [CTR-30, (E)-3-(3-(4-fluoro-2-methoxyphenyl)-3-oxoprop-1-enyl)quinolin-2(1H)-one] | – | 200 ± 30 | 1500 ± 130 | 1420 ± 80 | 1470 ± 150 | – | – | – | – | – | – | – | – | – | – | – |
| COc1cccc(OC)c1C(=O)/C=C/c1cc2ccccc2[nH]c1=O [CTR-25, (E)-3-(3-(2,6-dimethoxyphenyl)-3-oxoprop-1-enyl)quinolin-2(1H)-one] | 1600 | 770 ± 210 | 1320 ± 20 | 2600 ± 180 | 1690 ± 70 | – | – | – | – | – | – | – | – | – | – | – |
| COc1ccccc1C(=O)/C=C/c1cc2cc(C)ccc2[nH]c1=O [CTR-18, (E)-3-(3-(2-methoxyphenyl)-3-oxoprop-1-enyl)-6-methylquinolin-2(1H)-one] | 499 | – | – | – | – | 304 ± 2 | 307 ± 7 | 443 ± 112 | 530 ± 119 | 510 ± 38 | 1210 ± 179 | 239 ± 13 | 746 ± 177 | 596 ± 162 | 817 ± 34 | – |
| COC(=O)Nc1nc2ccc(C(=O)c3cccs3)cc2[nH]1 [Noco, Nocodazole, reference compound] | – | – | – | – | – | 48 ± 7 | 18 ± 2 | 25 ± 1 | 35 ± 4 | 33 ± 7 | 47 ± 11 | 23 ± 2 | 34 ± 3 | 39 ± 1 | 51 ± 11 | reduced steady-state |
| CCOc1ccccc1C(=O)/C=C/c1cc2cc(OC)ccc2[nH]c1=O [CTR-40, (E)-3-(3-(2-ethoxyphenyl)-3-oxoprop-1-enyl)-6-methoxyquinolin-2(1H)-one] | 36 | 50 ± 20 | 40 | 130 ± 20 | 90 ± 10 | 77 ± 13 | 23 | 19 ± 1 | 30 ± 4 | 41 ± 5 | 54 ± 13 | 11 | 42 ± 11 | 28 ± 5 | 53 ± 4 | – |
| COc1ccc(C(=O)/C=C/c2cc3ccccc3[nH]c2=O)c(OC)c1 [CTR-27, (E)-3-(3-(2,4-dimethoxyphenyl)-3-oxoprop-1-enyl)quinolin-2(1H)-one] | – | 770 ± 100 | 1800 ± 270 | 2690 ± 240 | 2200 ± 350 | – | – | – | – | – | – | – | – | – | – | – |
| COc1cc2cc(/C=C/C(=O)c3ccccc3OC)c(=O)[nH]c2cc1OC [CTR-24, (E)-6,7-dimethoxy-3-(3-(2-methoxyphenyl)-3-oxoprop-1-enyl)quinolin-2(1H)-one] | 1500 | 1040 ± 130 | 1340 ± 200 | 2020 ± 10 | 1540 ± 360 | – | – | – | – | – | – | – | – | – | – | – |
| COc1ccccc1C(=O)/C=C/c1cc2ccccc2[nH]c1=O [CTR-17, (E)-3-(3-(2-methoxyphenyl)-3-oxoprop-1-enyl)quinolin-2(1H)-one] | 464 | – | – | – | – | 320 ± 26 | 290 ± 66 | 280 ± 78 | 657 ± 72 | 485 ± 97 | 1300 ± 83 | 227 ± 30 | 626 ± 154 | 504 ± 33 | 786 ± 52 | – |

Second part, led by results:

| GI50 [1] [nM] | IC50 (RPMI-8226) [nM] | IC50 (HeLa) [nM] | IC50 (MDA-MB231) [nM] | IC50 (MCF7) [nM] | GI50 (MDA-MB468) [nM] | GI50 (MDA-MB435) [nM] | GI50 (HeLa) [nM] | GI50 (MDA-MB231) [nM] | GI50 (MCF7) [nM] | GI50 (MDA-MB231-TaxR) [nM] | SMILES | GI50 (MZ-Mel-3) [nM] | GI50 (UKRV-Mel-38) [nM] | GI50 (UKRV-Mel-17) [nM] | GI50 (Mel-SOE) [nM] | effect on tubulin polymerization (porcine tubulin) |
| --- | --- | --- | --- | --- | --- | --- | --- | --- | --- | --- | --- | --- | --- | --- | --- | --- |
| 2000 | 1320 ± 100 | 2070 ± 250 | 2350 ± 260 | 2120 ± 360 | – | – | – | – | – | – | COc1ccc(C(=O)/C=C/c2cc3cc(OC)ccc3[nH]c2=O)c(OC)c1 [CTR-35, (E)-3-(3-(2,4-dimethoxyphenyl)-3-oxoprop-1-enyl)-6-methoxyquinolin-2(1H)-one] | – | – | – | – | – |
| 805 | 150 ± 20 | 1110 ± 130 | 730 ± 60 | 1230 ± 80 | – | – | – | – | – | – | COc1ccc2[nH]c(=O)c(/C=C/C(=O)c3ccc(OC(F)(F)F)cc3OC)cc2c1 [CTR-36, (E)-6-methoxy-3-(3-(2-methoxy-4-(trifluoromethoxy)phenyl)-3-oxoprop-1-enyl)quinolin-(1H)-one] | – | – | – | – | – |
| 443 | 200 ± 30 | 290 ± 20 | 960 ± 150 | 320 ± 10 | – | – | – | – | – | – | COc1ccc(OC)c(C(=O)/C=C/c2cc3ccccc3[nH]c2=O)c1 [CTR-26, (E)-3-(3-(2,5-dimethoxyphenyl)-3-oxoprop-1-enyl)quinolin-2(1H)-one] | – | – | – | – | – |
| 98 | 40 ± 10 | 60 ± 10 | 150 ± 10 | 140 ± 20 | – | – | – | – | – | – | COc1ccc2[nH]c(=O)c(/C=C/C(=O)c3ccc(F)cc3OC)cc2c1 [CTR-38, (E)-3-(3-(4-fluoro-2-methoxyphenyl)-3-oxoprop-1-enyl)-6-methoxyquinolin-2(1H)-one] | – | – | – | – | – |
| 648 | 260 ± 20 | 640 ± 30 | 840 ± 80 | 850 ± 60 | – | – | – | – | – | – | COc1ccc(OC)c(C(=O)/C=C/c2cc3cc(OC)ccc3[nH]c2=O)c1 [CTR-34, (E)-3-(3-(2,5-dimethoxyphenyl)-3-oxoprop-1-enyl)-6-methoxyquinolin-2(1H)-one] | – | – | – | – | – |
| 232 | – | – | – | – | 408 ± 12 | 90 ± 10 | 124 ± 36 | 216 ± 21 | 194 ± 21 | 966 ± 163 | COc1ccc2[nH]c(=O)c(/C=C/C(=O)c3ccccc3OC)cc2c1 [CTR-20, (E)-6-Methoxy-3-(3-(2-methoxyphenyl)-3-oxoprop-1-enyl) quinolin-2(1H)-one] | 98 ± 21 | 338 ± 33 | 283 ± 57 | 338 ± 78 | – |
| – | 100 ± 30 | 140 ± 30 | 390 ± 90 | 320 ± 40 | – | – | – | – | – | – | COc1ccc2[nH]c(=O)c(/C=C/C(=O)c3cc(F)ccc3OC)cc2c1 [CTR-37, (E)-3-(3-(5-fluoro-2-methoxyphenyl)-3-oxoprop-1-enyl)-6-methoxyquinolin-2(1H)-one] | – | – | – | – | – |
| 118 | 70 ± 10 | 90 ± 20 | 210 ± 20 | 100 ± 10 | – | – | – | – | – | – | COc1ccc(F)cc1C(=O)/C=C/c1cc2ccccc2[nH]c1=O [CTR-29, (E)-3-(3-(5-fluoro-2-methoxyphenyl)-3-oxoprop-1-enyl)quinolin-2(1H)-one] | – | – | – | – | – |
